Reference: US20080089860A1, “Therapeutic compositions and methods useful in treating cancer” (priority 2006, published 2008)

Legend:
[1] = biological target: T1, MKP1 (Homo sapiens, UniProt P28562); assay: In vitro PTPase assay, GST/MKP1; assay type: biochemical; conditions: for inhibition of MKP1: section VII comparison
T1 construct: made in house; host or cells: E. coli DH5a
T1 sequence (P28562 13-367 limits assumed): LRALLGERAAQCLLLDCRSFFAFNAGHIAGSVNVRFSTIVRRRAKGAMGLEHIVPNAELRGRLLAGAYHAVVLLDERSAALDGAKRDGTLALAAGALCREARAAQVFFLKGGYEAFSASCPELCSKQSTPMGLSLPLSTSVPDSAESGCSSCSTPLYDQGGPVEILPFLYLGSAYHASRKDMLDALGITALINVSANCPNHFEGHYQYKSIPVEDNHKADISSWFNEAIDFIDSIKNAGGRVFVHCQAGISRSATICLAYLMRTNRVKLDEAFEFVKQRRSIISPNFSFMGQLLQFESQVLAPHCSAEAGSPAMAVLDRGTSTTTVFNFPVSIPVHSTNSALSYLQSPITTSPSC
Protocol: In vitro PTPase activities were measured using the commercial protein tyrosine phosphatase assay kit (Upstate Biotechnology, Inc. (“UBI”)) following established procedure known to one of skill in the art. This assay measures the in vitro dephosphorylation of a synthetic phosphotyrosine peptide of the sequence Arg-Arg-Leu-Ile-Glu-Asp-Ala-Gle-T- -yr-Ala-Ala-Arg-Gly, wherein the tyrosine is phosphorylated (SEQ ID NO: 3). Briefly, 0.01 µg of GST/PTPase fusion proteins was incubated in 50 µl of Tris buffer (10 mM Tris, pH 7.4) containing different concentrations of inhibitors or chemicals (0-1,000 µg/ml) at 22° C. for 10 minutes, followed by addition of 0.2 mM of the phosphotyrosine peptide and incubation at 22° C. for 18 hours. 100 µl of Malachite Green solution was added and incubated for 5 minutes, and the absorbance at 660 nm was measured after 5 minutes.
In vitro PTPase assays were used to determine the effects of levamisole (Sigma), pentamidine (American Pharmaceutical Partners, Inc.), and ketoconazole (Sigma) on recombinant PTPases, following established procedures (Pathak et al., J. Imumol. 167, 3391 (2001); Pathak et al., Leukemia 16, 2285 (2002), Yi et al., J. Immunol. 169, 5978 (2002)) using a synthetic phosphotyrosine peptide or DiFMUP as the substrate as detailed above in section I.A.2.

[2] = biological target: T2, PRL-3 (Homo sapiens, UniProt O75365); assay: In vitro PTPase assay, recombinant PRL-3; assay type: biochemical; conditions: for PRL-3 PTPase activity remaining: 0.1-100 μg/ml
T2 construct: made in house; host or cells: E. coli DH5a
Source text: Sodium stibogluconate, suramin, sodium orthovanadate and GST fusion protein of SHP-1 have been described previously (Pathak et al., J. Imumol. 167, 3391 (2001)). Meglumine antimonate was obtained from Aventis. cDNAs of human PRL-1, PRL-2 and PRL-3 coding region were derived by RT-PCR from H9 cells (Safai, et al., Lancet 1, 1438 (1984)) and inserted in frame into the pGEX vector. cDNA of PRL-1R86 was generated by recombinant DNA technique using PRL-1 cDNA as template following established procedures (Jiao, et al., Mol. Cell. Biol. 16, 6985 (1996)). GST fusion proteins of the PRL phosphatases were prepared from DH5a bacteria transformed with the pGEX fusion protein constructs as described previously (Yi, et al., Mol. Cell. Biol. 12, 836 (1992)). cDNAs encoding the PRLs tagged at the N-termini with the Flag epitope (Castrucci, et al., J. Virol. 66, 4647 (1992)) were generated via recombinant DNA technique, sequenced to confirm their identities and cloned into the pBabepuro vector (Yang, et al., Blood 91, 3746 (1998)). Anti-Flag monoclonal antibody (M2, Sigma) was purchased from a commercial source. A synthetic phosphotyrosine peptide (Arg-Arg-Leu-Ile-Glu-Asp-Ala-Gle-Tyr-Al- -a-Ala-Arg-Gly (SEQ ID NO: 3), wherein the tyrosine is phosphorylated; UBI) and DiFMUP (6,8-difluoro-4-methylumbelliferyl phosphate, Molecular Probes) were purchased as substrates for PTPase assays.
In vitro PTPase assays were used to determine the effects of compounds on recombinant PTPases, following established procedures using a synthetic phosphotyrosine peptide or DiFMUP as the substrate (Pathak et al., J. Imumol. 167, 3391 (2001)). Briefly, individual PTPases (0.1 µg/reaction) in 50 µL of PTPase buffer (50 mM Tris, pH 7.4) were incubated at 22° C. for 10 minutes or as indicated in the absence or presence of inhibitory compounds. Substrates (0.2 mM phosphotyrosine peptide) were then added and allowed to react at 22° C. for 18 hrs. PTPase activity of individual reactions was measured by adding 100 µL of malachite green solution (UBI) and then quantifying the amounts of free phosphate cleaved by the PTPase from the peptide substrate by spectrometry (OD660 nm). PTPase assays using DiFMUP as a substrate were conducted following a previously described procedure (Matter, et al., Biochem. Biophys. Res. Comm. 283, 1061 (2001)). Relative PTPase activities were calculated based on the formula: (PTPase activity in the presence of an inhibitory compound/PTPase activity in the absence of the compound)× 100%. To assess the reversibility of PTPase inhibition, GST fusion proteins of the PTPases bound on glutathione beads (Pharmacia) were pre-incubated with cold Tris buffer (50 mM Tris, pH 7.0) or Tris buffer containing the inhibitor at 4° C. for 30 minutes. The beads were then washed three times in cold Tris buffer or not washed prior to subjecting to in vitro PTPase assays.

T2 sequence (O75365 whole entry): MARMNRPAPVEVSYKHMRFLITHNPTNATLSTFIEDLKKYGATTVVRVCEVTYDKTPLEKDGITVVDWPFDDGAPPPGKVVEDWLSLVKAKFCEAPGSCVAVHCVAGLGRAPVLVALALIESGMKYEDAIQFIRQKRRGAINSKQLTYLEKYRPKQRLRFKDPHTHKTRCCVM

Structure (SMILES)	inhibition of MKP1 [1]	PRL-3 PTPase activity remaining [2]	inhibitory activity against MKP1 [1]	inhibition of PRL-3 after washing [2]	inactivation of PRL-3 ([2]; 10 μg/ml, pre-incubation 30 or 60 minutes)
N=C(N)c1ccc(OCCCCCOc2ccc(C(=N)N)cc2)cc1 [pentamidine]	substantial inhibition	20-30%	–	–	–
CC(=O)N1CCN(c2ccc(OCC3COC(Cn4ccnc4)(c4ccc(Cl)cc4Cl)O3)cc2)CC1 (centres unmarked) [ketoconazole]	substantial inhibition	25-40%	–	–	–
O.O.O.O.O.O.O.O.O.O=C([O-])[C@@H]1[O][Sb]2([O-])([O][Sb]34([OH])[O][C@H]([C@H](O)CO)[C@H]([O]3)[C@H](C(=O)[O-])[O]4)[O][C@H]([C@H](O)CO)[C@@H]1[O]2.[Na+].[Na+].[Na+] [sodium stibogluconate]	no obvious effects	–	no obvious inhibitory activity	not relieved by a washing process	nearly complete inactivation
